Activity calls are given as the source filed them. The rule behind the calls is not given here.
System: CCRIS mutagenicity, Ames/micronucleus/aberration tests
Assay: CCRIS mutagenicity studies
[1] = Test System: AMES SALMONELLA TYPHIMURIUM, Strain/Indicator: TA98, Metabolic Activation: NONE, Method: PREINCUBATION
[2] = Test System: AMES SALMONELLA TYPHIMURIUM, Strain/Indicator: TA100, Metabolic Activation: NONE, Method: PREINCUBATION
[3] = Test System: AMES SALMONELLA TYPHIMURIUM, Strain/Indicator: TA1535, Metabolic Activation: NONE, Method: PREINCUBATION
[4] = Test System: AMES SALMONELLA TYPHIMURIUM, Strain/Indicator: TA1537, Metabolic Activation: NONE, Method: PREINCUBATION
[5] = Test System: AMES SALMONELLA TYPHIMURIUM, Strain/Indicator: TA98, Metabolic Activation: NONE, Method: STANDARD PLATE
[6] = Test System: AMES SALMONELLA TYPHIMURIUM, Strain/Indicator: TA100, Metabolic Activation: NONE, Method: STANDARD PLATE
[7] = Test System: AMES SALMONELLA TYPHIMURIUM, Strain/Indicator: TA98, Metabolic Activation: RAT, LIVER, S-9, AROCLOR 1254, Method: STANDARD PLATE
[8] = Test System: AMES SALMONELLA TYPHIMURIUM, Strain/Indicator: TA100, Metabolic Activation: RAT, LIVER, S-9, AROCLOR 1254, Method: STANDARD PLATE

COc1cc2c(cc1OC)[C@@]13CCN4CC5=CCO[C@H]6CC(=O)N2[C@H]1[C@H]6[C@H]5C[C@H]43
mutagenic call (Test System: AMES SALMONELLA TYPHIMURIUM, Strain/Indicator: TA98, Metabolic Activation: HAMSTER, LIVER, S-9, AROCLOR 1254 (10%), Method: PREINCUBATION): inactive; negative
mutagenic call [1]: inactive; negative
mutagenic call (Test System: AMES SALMONELLA TYPHIMURIUM, Strain/Indicator: TA98, Metabolic Activation: RAT, LIVER, S-9, AROCLOR 1254 (10%), Method: PREINCUBATION): inactive; negative
mutagenic call (Test System: AMES SALMONELLA TYPHIMURIUM, Strain/Indicator: TA100, Metabolic Activation: HAMSTER, LIVER, S-9, AROCLOR 1254 (10%), Method: PREINCUBATION): inactive; negative
mutagenic call [2]: inactive; negative
mutagenic call (Test System: AMES SALMONELLA TYPHIMURIUM, Strain/Indicator: TA100, Metabolic Activation: RAT, LIVER, S-9, AROCLOR 1254 (10%), Method: PREINCUBATION): inactive; negative
mutagenic call (Test System: AMES SALMONELLA TYPHIMURIUM, Strain/Indicator: TA1535, Metabolic Activation: HAMSTER, LIVER, S-9, AROCLOR 1254 (10%), Method: PREINCUBATION): inactive; negative
mutagenic call [3]: inactive; negative
mutagenic call (Test System: AMES SALMONELLA TYPHIMURIUM, Strain/Indicator: TA1535, Metabolic Activation: RAT, LIVER, S-9, AROCLOR 1254 (10%), Method: PREINCUBATION): inactive; negative
mutagenic call (Test System: AMES SALMONELLA TYPHIMURIUM, Strain/Indicator: TA1537, Metabolic Activation: HAMSTER, LIVER, S-9, AROCLOR 1254 (10%), Method: PREINCUBATION): inactive; negative
mutagenic call [4]: inactive; negative
mutagenic call (Test System: AMES SALMONELLA TYPHIMURIUM, Strain/Indicator: TA1537, Metabolic Activation: RAT, LIVER, S-9, AROCLOR 1254 (10%), Method: PREINCUBATION): inactive; negative

FC(Cl)C(F)(F)C(F)(F)Cl (configuration not stated)
mutagenic call [5]: inactive; negative
mutagenic call (Test System: AMES SALMONELLA TYPHIMURIUM, Strain/Indicator: TA98, Metabolic Activation: RAT LIVER S-9, PHENOBARBITAL, 5,6-BENZOFLAVONE, Method: STANDARD PLATE): inactive; negative
mutagenic call [6]: inactive; negative
mutagenic call (Test System: AMES SALMONELLA TYPHIMURIUM, Strain/Indicator: TA100, Metabolic Activation: RAT LIVER S-9, PHENOBARBITAL, 5,6-BENZOFLAVONE, Method: STANDARD PLATE): inactive; negative
mutagenic call (Test System: AMES SALMONELLA TYPHIMURIUM, Strain/Indicator: TA1535, Metabolic Activation: NONE, Method: STANDARD PLATE): inactive; negative
mutagenic call (Test System: AMES SALMONELLA TYPHIMURIUM, Strain/Indicator: TA1535, Metabolic Activation: RAT LIVER S-9, PHENOBARBITAL, 5,6-BENZOFLAVONE, Method: STANDARD PLATE): inactive; negative
mutagenic call (Test System: AMES SALMONELLA TYPHIMURIUM, Strain/Indicator: TA1537, Metabolic Activation: NONE, Method: STANDARD PLATE): inactive; negative
mutagenic call (Test System: AMES SALMONELLA TYPHIMURIUM, Strain/Indicator: TA1537, Metabolic Activation: RAT LIVER S-9, PHENOBARBITAL, 5,6-BENZOFLAVONE, Method: STANDARD PLATE): inactive; negative
mutagenic call (Test System: ESCHERICHIA COLI, Strain/Indicator: WP2 UVR A, Metabolic Activation: NONE, Method: STANDARD PLATE): inactive; negative
mutagenic call (Test System: ESCHERICHIA COLI, Strain/Indicator: WP2 UVR A, Metabolic Activation: RAT LIVER S-9, PHENOBARBITAL, 5,6-BENZOFLAVONE, Method: STANDARD PLATE): inactive; negative
mutagenic call (Test System: UDS RAT HEPATOCYTES IN VIVO, Strain/Indicator: THYMIDINE INCORPORATION, Metabolic Activation: NONE, Method: INHALATION (6HR, NOSE-ONLY, 2-OR 16-HR HARVEST)/AUTORADIOGRAPHY): inactive; negative

Clc1c(Cl)c(Cl)c2ccccc2c1Cl
mutagenic call (Test System: AMES SALMONELLA TYPHIMURIUM, Strain/Indicator: TA98, Metabolic Activation: HAMSTER, LIVER, S-9, AROCLOR 1254, Method: PREINCUBATION): inactive; negative
mutagenic call [1]: inactive; negative
mutagenic call (Test System: AMES SALMONELLA TYPHIMURIUM, Strain/Indicator: TA98, Metabolic Activation: RAT, LIVER, S-9, AROCLOR 1254, Method: PREINCUBATION): inactive; negative
mutagenic call (Test System: AMES SALMONELLA TYPHIMURIUM, Strain/Indicator: TA100, Metabolic Activation: HAMSTER, LIVER, S-9, AROCLOR 1254, Method: PREINCUBATION): inactive; negative
mutagenic call [2]: inactive; negative
mutagenic call (Test System: AMES SALMONELLA TYPHIMURIUM, Strain/Indicator: TA100, Metabolic Activation: RAT, LIVER, S-9, AROCLOR 1254, Method: PREINCUBATION): inactive; negative
mutagenic call (Test System: AMES SALMONELLA TYPHIMURIUM, Strain/Indicator: TA1535, Metabolic Activation: HAMSTER, LIVER, S-9, AROCLOR 1254, Method: PREINCUBATION): inactive; negative
mutagenic call [3]: inactive; negative
mutagenic call (Test System: AMES SALMONELLA TYPHIMURIUM, Strain/Indicator: TA1535, Metabolic Activation: RAT, LIVER, S-9, AROCLOR 1254, Method: PREINCUBATION): inactive; negative
mutagenic call (Test System: AMES SALMONELLA TYPHIMURIUM, Strain/Indicator: TA1537, Metabolic Activation: HAMSTER, LIVER, S-9, AROCLOR 1254, Method: PREINCUBATION): inactive; negative
mutagenic call [4]: inactive; negative
mutagenic call (Test System: AMES SALMONELLA TYPHIMURIUM, Strain/Indicator: TA1537, Metabolic Activation: RAT, LIVER, S-9, AROCLOR 1254, Method: PREINCUBATION): inactive; negative

Cc1ccc2cc3c(c4c2c1CC4)[C@@H](O)[C@@H](O)c1ccccc1-3
mutagenic call (Test System: CHINESE HAMSTER V-79, Strain/Indicator: V-79/8-AZAGUANINE, Metabolic Activation: NONE, Method: STANDARD PLATE): active; positive

O=Cc1ccc2ccc3cccc4ccc1c2c34
mutagenic call [7]: active; positive
mutagenic call [8]: active; positive

CCCOc1cc(N=Nc2ccccc2)ccc1N=Nc1c(S(=O)(=O)O)cc2ccc(N)cc2c1O
mutagenic call [5]: inactive; negative
mutagenic call [7]: active; positive
mutagenic call [6]: inactive; negative
mutagenic call [8]: inactive; negative
mutagenic call (Test System: AMES SALMONELLA TYPHIMURIUM, Strain/Indicator: TA1538, Metabolic Activation: NONE, Method: STANDARD PLATE): inactive; negative
mutagenic call (Test System: AMES SALMONELLA TYPHIMURIUM, Strain/Indicator: TA1538, Metabolic Activation: RAT, LIVER, S-9, AROCLOR 1254, Method: STANDARD PLATE): active; positive

CCN(CC)CC#CCOC(=O)C(O)(c1ccccc1)C1CCCCC1 (configuration not stated)
mutagenic call (Test System: AMES SALMONELLA TYPHIMURIUM, Strain/Indicator: TA98, Metabolic Activation: NONE): inactive; negative
mutagenic call (Test System: AMES SALMONELLA TYPHIMURIUM, Strain/Indicator: TA98, Metabolic Activation: S-9): inactive; negative
mutagenic call (Test System: AMES SALMONELLA TYPHIMURIUM, Strain/Indicator: TA100, Metabolic Activation: NONE): inactive; negative
mutagenic call (Test System: AMES SALMONELLA TYPHIMURIUM, Strain/Indicator: TA100, Metabolic Activation: S-9): inactive; negative
mutagenic call (Test System: AMES SALMONELLA TYPHIMURIUM, Strain/Indicator: TA1535, Metabolic Activation: NONE): inactive; negative
mutagenic call (Test System: AMES SALMONELLA TYPHIMURIUM, Strain/Indicator: TA1535, Metabolic Activation: S-9): inactive; negative
mutagenic call (Test System: AMES SALMONELLA TYPHIMURIUM, Strain/Indicator: TA1537, Metabolic Activation: NONE): inactive; negative
mutagenic call (Test System: AMES SALMONELLA TYPHIMURIUM, Strain/Indicator: TA1537, Metabolic Activation: S-9): inactive; negative
mutagenic call (Test System: AMES SALMONELLA TYPHIMURIUM, Strain/Indicator: TA1538, Metabolic Activation: NONE): inactive; negative
mutagenic call (Test System: AMES SALMONELLA TYPHIMURIUM, Strain/Indicator: TA1538, Metabolic Activation: S-9): inactive; negative
mutagenic call (Test System: E. COLI, Strain/Indicator: WP2 UVRA, Metabolic Activation: NONE): inactive; negative
mutagenic call (Test System: E. COLI, Strain/Indicator: WP2 UVRA, Metabolic Activation: S-9): inactive; negative

Cn1c(N)nc2c3cnccc3ccc21
mutagenic call [7]: active; positive

— PubChem BioAssay AID1259407 (Chemical Carcinogenesis Research Information System (CCRIS), 2018)
